Results reported in publication PMC11161032 (ACS infectious diseases, 2023).

Columns and labels:
M49L M^pro = assay type: biochemical, SARS-CoV-2
T25E M^pro = assay type: biochemical, SARS-CoV-2

Compound	increase of Ki compared to wild-type (M49L M^pro)	increase of Ki compared to wild-type (T25E M^pro)
Cn1cnc(Cn2c(=O)[nH]/c(=N\c3cc4cn(C)nc4cc3Cl)n(Cc3cc(F)c(F)cc3F)c2=O)n1 [ensitrelvir]	40 fold	300 fold
CC(C)(C)[C@H](NC(=O)C(F)(F)F)C(=O)N1C[C@H]2[C@@H]([C@H]1C(=O)N[C@H](C#N)C[C@@H]1CCNC1=O)C2(C)C [nirmatrelvir]	minimal to no observed impact on Ki	minimal to no observed impact on Ki
